The text below walks through data of patent US5891657A (priority 1994, dated 1999).

Data set [1] is described as follows: Loss of immunoreactivity on storage in open test tube (volatilization). The format is physicochemical. As to conditions: conditions of Example 1; 2,4-D 10 ppm, naphthalene 0.75 ppm; FIG. 5. How it is done:
They were stored in 10 ml of distilled water at room temperature (15°-30° C.) in an open test tube (18 mm in diameter, and 150 mm in length).
The "Recovery" was taken to be inversely proportional to the light at 450 nm generated in the assay. […] The loss of reactivity as a function of time was concluded that the loss was due to volatilization and not chemical decomposition of the compounds. Also the loss was so great that it was concluded that even if the solutions had been incubated as 2 ml aliquots in 3 ml closed vials, much more than 30 percent would have volatilized over a 14-day period.
Additionally, preparations of anthracene (20 ppm), naphthalene (0.75 ppm), and 2,4-D (10 ppm), were tested for their immunoreactivity using the conditions of using the conditions described in Example 1.

Data set [2] relates to anti-analyte antibody. The settings on record: magnetic-particle enzyme immunoassay.
Protocol: (§1) The sample to be tested is added, along with the enzyme conjugate, to a disposable test tube followed by the addition of paramagnetic particles with analyte-specific antibodies attached. At the end of an incubation period, a magnetic field is applied to hold the paramagnetic particles (with analyte and enzyme-conjugate bound to the antibodies on the particles, in proportion to their original concentration in the tube) in the tube and allow the unbound reagents to be decanted. After decanting, the particles are washed with Washing Solution.
(§2) The presence of analyte is detected by adding the enzyme substrate (hydrogen peroxide) and the chromogen (3,3',5,5'-tetramethylbenzidine). The enzyme-conjugate bound to the anti-analyte antibody catalyzes the conversion of the substrate/chromogen mixture to a colored product. After an incubation period, the reaction is stopped and stabilized by the addition of acid. Since the conjugate was in competition with the unlabeled analyte for the antibody sites, the color developed is inversely proportional to the concentration of analyte in the sample.
(§3) 200 μl of either standard, control or sample is added to each tube.
(§4) 250 μl of conjugate is added to each tube.
(§5) The antibody-coupled paramagnetic particles are mixed thoroughly and 500 ul of them are added to each tube (The stock solution with a concentration of 8-10 mg iron/ml was diluted 1:1000 in 150 mM Tris, 150 mM NaCl, 1 mM EDTA, 0.1% BSA with 15 ppm Proclin, pH 7.4 and 500 ul was added to each tube).
(§6) Tubes are vortexed for 1 to 2 seconds minimizing foaming.
(§7) Tubes are incubated for 15 min at room temperature (15°-30° C.).
(§8) Tubes in the magnetic rack are placed over a magnetic base for two minutes.
(§9) The tubes are decanted and gently blotted briefly in a consistent manner.
(§10) One ml of Washing Solution is added to each tube and the tubes are allowed to remain in the separation rack for two minutes.
(§11) Decant and gently blot all tubes briefly in a consistent manner.
(§12) Repeat steps 8 and 9 an additional time.
(§13) Remove the rack from the separator and add 500 μl of Color Solution to eac tube.
(§14) Vortex for 1 to 2 seconds minimizing foaming.
(§15) Incubate for 20 minutes at room temperature.
(§16) Add 500 μl of Stopping Solution to each tube.
(§17) Read results at 450 nm within 15 minutes after adding the Stopping Solution.
(§18) Calculating the mean absorbance value for each standard.
(§19) Calculating the % B/B0 for each standard by dividing the mean absorbance value for the standard by the mean absorbance value for the Diluent/Zero Standard In other words if the mean absorbance value for the standard is 0.5 times the mean absorbance value for the Diluent/Zero Standard then the % B/B0 is 50% and the concentration of standard used is the 50% B/B0 concentration.)
(§20) Constructing a standard curve by plotting the % B/B0 for each standard on vertical logit (Y) axis versus the corresponding analyte concentration on a horizontal algorithmic (X) axis.
(§21) 4. % B/B0 for controls and sample will then yield levels in ppm of analyte by interpolation using the standard curve.
The nature of data set [3]: Storage stability, 2.5 ml in 3.5 ml vials, antibody preparation reactive with anthracene and phenanthrene. The data set is classed as physicochemical. The procedure: Additional experiments were done using volumes of 2.5 ml in 3.5 ml vials and an antibody preparation reactive with anthracene and phenanthrene, the antibodies not made with the immunogen described herein and although much less suited for purposes of the present inventions than that made from the described immunogen, were adequate for obtaining the stability curves. (The results were considered to essentially reflect what would have occurred if the storage was done with 2 ml of solution in a 3 ml vial.) Anthracene was tested at concentrations of 1 ppb (upper set of curves in FIG. 6), 10 ppb (middle set of curves in FIG. 6) and 100 ppb (lower set of curves in FIG. 6) in TBS pH 7.0 at the specified temperatures in FIG. 6. Phenanthrene was tested at concentrations of 1 ppb (upper set of curves in FIG. 7), 10 ppb (middle set of curves in FIG. 7) and 100 ppb (lower set of curves in FIG. 7) in TBS at pH 7.0 at the specified temperatures in FIG. 7.

Data set [4] in a line: Stability (lack of volatilization) of 2 ml solution in stoppered 3 ml vial. The data set is classed as physicochemical. The settings on record: 0.035, 0.10, 0.750 ppm; 2 ml in stoppered 3 ml vial; various temperatures; 60 days; FIGS. 2-4. The procedure:
Storage was effected by incubating the 2 ml of solution in a stoppered vial with a 3 ml capacity. The one ml of open "head space" in the vial […] to allow volatilization of the N-(3-methylbenzyl)-diglycolic acid, monoamide.
At each concentration of the N-(3-methylbenzyl)-diglycolic acid, monoamide, the immunoassay was performed at various temperatures denoted in the Figure summarizing the results.

Data set [5] deals with anti-analyte antibody. In words: Cross-reactivity / immunoreactivity in competitive magnetic-particle enzyme immunoassay.
Protocol: as §1, §2, §3, §4, §5, §6, §7, §8, §9, §10, §11, §12, §13, §14, §15, §16, §17, §18, §19, §20, §21
The conditions of data set [6]: because of boiling point 279° C. (Merck Index); cited from earlier work.

Converted amounts (≈) assume the structure as drawn.

As to `O=C(O)COc1ccc(Cl)cc1Cl` [2,4-D], the stability on storage result in data set [1] is recorded as “more stable than m-xylene but less stable than anthracene”.

The term IC50 denotes the concentration that gives 50% inhibition. Low values mean inhibition by little substance, high ones a need for much substance. Turning to `c1ccc2ccccc2c1` [naphthalene], the stability on storage entry in data set [1] is on record as “not sufficiently stable”. The IC50 in the data set with anti-analyte antibody [2] amounted to 0.59 µg/mL (≈ 4.6 µM). In the case of `c1ccc2cc3ccccc3cc2c1` [anthracene], in data set [3] (1, 10, 100 ppb in TBS pH 7.0, 2.5 ml in 3.5 ml vials, FIGS. 6, 7), the stability on storage entry was “very stable (meets the 14-day test)”. Further, in the data set with anti-analyte antibody [2], the midpoint of inhibition, the IC50, lay at 28 µg/mL (≈ 157 µM). In the data set with anti-analyte antibody [2], `Cc1cccc(C)c1` [m-xylene] gave an IC50 of 1.8 µg/mL (≈ 17 µM). In the data set on anti-analyte antibody [2], `c1ccccc1` [benzene] displayed an IC50 of 51 µg/mL (≈ 653 µM). Still for that read-out and setting: the same measure for `Cc1ccc(C)c(C)c1` [1,2,4-trimethylbenzene]: 1.15 µg/mL (≈ 9.57 µM). `Cc1cccc(CNC(=O)COCC(=O)O)c1` [N-(3-methylbenzyl)-diglycolic acid, monoamide]: the “stability (lack of volatilization) as a function of storage time” value in data set [4] was “essentially stable”. In addition, the “equivalent Total BTEX concentration” value in the data set on anti-analyte antibody [5] (standard at 0.035 ppm) was “approximately 0.09 ppm”; in the data set on anti-analyte antibody [5] (standard at 0.035 ppm, monoamide), 0.09 ppm; in the data set with anti-analyte antibody [5] (standard at 0.10 ppm), “approximately 0.35 ppm”; with anti-analyte antibody [5] (standard at 0.10 ppm, monoamide), 0.35 ppm; in the data set on anti-analyte antibody [5] (standard at 0.75 ppm), “approximately 3.00 ppm”; in the data set on anti-analyte antibody [5] (standard at 0.75 ppm, monoamide), 3.00 ppm.

As for `CCCCCCC` [n-heptane], the IC50 in the data set with anti-analyte antibody [2] is 72 µg/mL (≈ 719 µM). On the same count and under the same terms, the same measure for `ClC=C(Cl)Cl` [trichloroethylene]: greater than 100 µg/mL; for `C1CCCCC1` [cyclohexane]: greater than 100 µg/mL. In the case of `c1cc2c3c(cccc3c1)CC2` [acenaphthene], in the data set on anti-analyte antibody [2], the half-maximal inhibitory concentration (IC50) amounted to 6.2 µg/mL (≈ 40.2 µM). Also, the “stability as regards volatilization” value in data set [6] is on record as “stable as regards volatilization”. Consider `Clc1c(Cl)c(Cl)c(Cl)c(Cl)c1Cl` [hexachlorobenzene], for which the IC50 with anti-analyte antibody [2] was greater than 100 µg/mL. On the same count and under the same terms, the figure for `CCCCCC` [n-hexane] is greater than 100 µg/mL; for `Cc1ccccc1C` [o-xylene] it is 4.7 µg/mL (≈ 44.3 µM). Take `Cc1ccccc1` [toluene]: half-maximal inhibition in the data set with anti-analyte antibody [2] (IC50) was put at 7.4 µg/mL (≈ 80.3 µM). This IC50 lies about 1.6-fold higher than the previous one. `Cc1ccc(C)cc1` [p-xylene] showed an IC50 in the data set on anti-analyte antibody [2] of 3.1 µg/mL (≈ 29.2 µM).

In the data set with anti-analyte antibody [2], `CCc1ccccc1` [ethylbenzene] displayed an IC50 of 7.8 µg/mL (≈ 73.5 µM). In turn, `Cc1cc(C)cc(C)c1` [1,3,5-tri-methylbenzene] had an IC50 in the data set on anti-analyte antibody [2] of 3.5 µg/mL (≈ 29.1 µM). With `CCCCCCCC` [n-octane], in the data set with anti-analyte antibody [2], the IC50 was greater than 100 µg/mL. As for `c1ccc2c(c1)ccc1ccccc12` [phenanthrene], the stability on storage result in data set [3] (pH 7) is on record as “very stable (meets the 14-day test)”. For the same compound, the IC50 in the data set on anti-analyte antibody [2] amounted to 1.6 µg/mL (≈ 8.98 µM). The compound `CCCCCCCCC` [n-nonane] displayed an IC50 in the data set with anti-analyte antibody [2] greater than 100 µg/mL. On the same count and under the same terms, the figure for `ClCCl` [methylene chloride] is greater than 100 µg/mL. Same read-out and setting: the figure for `CCCc1ccccc1` [n-propylbenzene] is 4.7 µg/mL (≈ 39.1 µM); for `CCCCCCCCCC` [n-decane] it is greater than 100 µg/mL; for `C=Cc1ccccc1` [styrene] it is 2.6 µg/mL (≈ 25 µM).
